The record followed here is patent US20230339952A1, “MACROCYCLIC HETEROCYCLES AND USES THEREOF” (Kumquat Biosciences Inc., priority 2022, published 2023).

Chain of SOS1 (Q07889 564-1049): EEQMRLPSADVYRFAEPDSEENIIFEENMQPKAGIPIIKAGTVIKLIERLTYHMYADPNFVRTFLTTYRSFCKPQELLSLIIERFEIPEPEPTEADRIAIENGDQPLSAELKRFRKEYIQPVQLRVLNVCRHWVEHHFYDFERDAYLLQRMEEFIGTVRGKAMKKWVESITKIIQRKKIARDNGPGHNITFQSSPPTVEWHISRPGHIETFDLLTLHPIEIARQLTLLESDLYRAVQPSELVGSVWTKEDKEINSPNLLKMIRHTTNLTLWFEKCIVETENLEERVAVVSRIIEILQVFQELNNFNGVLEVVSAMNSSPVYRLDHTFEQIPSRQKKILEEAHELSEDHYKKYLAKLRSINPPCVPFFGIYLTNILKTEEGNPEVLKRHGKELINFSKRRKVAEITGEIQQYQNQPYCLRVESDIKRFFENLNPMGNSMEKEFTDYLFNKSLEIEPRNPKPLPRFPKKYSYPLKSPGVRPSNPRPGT

The target of this experiment is SOS1 (Homo sapiens (Human), UniProt Q07889). Put plainly: Ras-SOS interaction assay (HTRF), K-Ras G13D utilized. The experiment is classed as binding. The following applies: K-Ras G13D, read-out: SOS1 IC50. An excerpt:
For example, the equilibrium interaction of human SOS1 (hSOS1) with human wildtype Kras or K-Ras mutant (e.g., hK-Ras G12C mutant, or hK-Ras G12C) can be assessed as a proxy or an indication for a subject compound's ability to inhibit SOS. Detection of such interaction is achieved by measuring homogenous time-resolved fluorescence resonance energy transfer (HTRF) from (i) a fluorescence resonance energy transfer (FRET) donor (e.g., antiGST-Europium) that is bound to GST-tagged K-Ras G12C to (ii) a FRET acceptor (e.g., anti-6His-XL665) bound to a His-tagged hSOS1.
A Ras working solution is prepared in assay buffer containing typically 10 nM of the protein construct (e.g., GST-tagged hK-Ras G12C) and 2 nM of the FRET donor (e.g., antiGST-Eu(K) from Cisbio, France). A SOS1 working solution is prepared in assay buffer containing typically 10 nM of the protein construct (e.g., His-hSOS1) and 10 nM of the FRET acceptor (e.g., anti-6His-XL665 from Cisbio, France). An inhibitor control solution is prepared in assay buffer containing 10 nM of the FRET acceptor without the SOS1 protein.
A fixed reaction mixture with or without test compound is transferred into a 384-well plate. Ras working solution is added to all wells of the test plate. SOS1 working solution is added to all wells except for those that are subsequently filled with the inhibitor control solution. […] The ratiometric data (i.e., emission 2 divided by emission 1) is used to calculate IC50 values against SOS1 using GraphPad Prism (GraphPad software).
Turning to `C[C@H]1Nc2nc(=O)n(c3c2cc(C2(C#N)CC2)c(=O)n3C)CCCCOCC(F)(F)c2cccc1c2F` [Compound 37, 1-((3R,E)-4^2,5,5-trifluoro-1^8,3-dimethyl-1^2,1^7-dioxo-1^1,1^2,1^7,1^8-tetrahydro-7-oxa-2-aza-1(4,1)-pyrido[2,3-d]pyrimidina-4(1,3)-benzenacycloundecaphane-1^6-yl)cyclopropane-1-carbonitrile], the IC50 was in the range of 100 to 5000 nM.

For the compound `C[C@H]1Nc2ncnc3c2cc(C2CCS(=O)(=O)CC2)c(=O)n3CCNC(=O)CCCN2CCC(CC2)C(F)(F)c2cccc1c2` [Compound 75, (4R)-6^6-(1,1-dioxidotetrahydro-2H-thiopyran-4-yl)-2,2-difluoro-4-methyl-6^7,6^8-dihydro-5,9-diaza-6(4,8)-pyrido[2,3-d]pyrimidina-1(4,1)-piperidina-3(1,3)-benzenacyclotridecaphane-6^7,10-dione], the IC50 was < 100 nM.

`C[C@H]1Nc2nc(=O)n(c3c2cc(C2(C#N)CC2)c(=O)n3C)CCCCCOCC(F)(F)c2cccc1c2F` [Compound 5, 1-((3R,E)-4^2,5,5-trifluoro-1^8,3-dimethyl-1^2,1^7-dioxo-1^1,1^2,1^7,1^8-tetrahydro-7-oxa-2-aza-1(4,1)-pyrido[2,3-d]pyrimidina-4(1,3)-benzenacyclododecaphane-1^6-yl)cyclopropane-1-carbonitrile]: the IC50 is 100 to 5000 nM.

Take `C[C@H]1Nc2nc(=O)n(c3c2cc(C2(C#N)CC2)c(=O)n3C)CCC/C=C\COCC(F)(F)c2cccc1c2F` [Compound 2, 1-((1^3E,3R,9Z)-4^2,5,5-trifluoro-1^8,3-dimethyl-1^2,1^7-dioxo-1^1,1^2,1^7,1^8-tetrahydro-7-oxa-2-aza-1(4,1)-pyrido[2,3-d]pyrimidina-4(1,3)-benzenacyclotridecaphan-9-en-1^6-yl)cyclopropane-1-carbonitrile]: the IC50 was in the range of 100 to 5000 nM.

For the compound `COc1cc2nc(C)nc3c2cc1OCCOCCOCCOCCOCCNC(=O)CCCNCc1ccccc1C1=CC=C(S1)C(C)N3` (stereo not drawn) [Compound 51, 5^7-methoxy-5^2,3-dimethyl-6,9,12,15,18-pentaoxa-4,21,26-triaza-5(4,6)-quinazolina-2(2,5)-thiophena-1(1,2)-benzenacycloheptacosaphan-22-one], the IC50 is < 100 nM.

For the compound `Cc1nc2c3cc(C4(C#N)CC4)c(=O)n(c3n1)CCCC/C=C\CC(C)(O)C(F)(F)c1cccc(c1)[C@@H](C)N2` (stereo partly drawn) [Compound 13, 1-((3R,Z)-5,5-difluoro-6-hydroxy-1^2,3,6-trimethyl-1^7-oxo-1^7,1^8-dihydro-2-aza-1(4,8)-pyrido[2,3-d]pyrimidina-4(1,3)-benzenacyclotridecaphan-8-en-1^6-yl)cyclopropane-1-carbonitrile], the IC50 lay within 100 to 5000 nM.

Consider `C[C@H]1Nc2ncnc3c2cc(C2(C#N)CC2)c(=O)n3CC(=O)N(C)CCCCN2CCC(CC2(C)C)C(F)(F)c2cccc1c2` (stereo partly drawn) [Compound 93, 1-((4R)-2,2-difluoro-1^2,1^2,4,9-tetramethyl-6^7,8-dioxo-6^7,6^8-dihydro-5,9-diaza-6(4,8)-pyrido[2,3-d]pyrimidina-1(4,1)-piperidina-3(1,3)-benzenacyclotridecaphane-6^6-yl)cyclopropane-1-carbonitrile], for which the IC50 was < 100 nM.

As to `C[C@H]1Nc2ncnc3cc(c(N4CCS(=O)(=O)CC4)cc23)OCCCCOCCCN2CCC(CC2)C(F)(F)c2cccc1c2` [Compound 192, (R)-4-(2,2-difluoro-4-methyl-7,12-dioxa-5-aza-6(4,7)-quinazolina-1(4,1)-piperidina-3(1,3)-benzenacyclopentadecaphane-6^6-yl)thiomorpholine 1,1-dioxide], the IC50 is < 100 nM.

For the compound `C[C@H]1Nc2nc(=O)n(c3c2cc(C2(C#N)CC2)c(=O)n3C)CC/C=C\COCC(F)(F)c2cccc1c2F` [Compound 102, 1-((1^3E,3R,9Z)-4^2,5,5-trifluoro-1^8,3-dimethyl-1^2,1^7-dioxo-1^1,1^2,1^7,1^8-tetrahydro-7-oxa-2-aza-1(4,1)-pyrido[2,3-d]pyrimidina-4(1,3)-benzenacyclododecaphan-9-en-1^6-yl)cyclopropane-1-carbonitrile], the IC50 lay in the range of 100 to 5000 nM.

On to `Cc1nnc2c3cc(N4CCOCC4)cc(c13)OCCCCCCN1CCC(CC1)C(F)(F)c1cccc(c1)[C@@H](C)N2` [Compound 196, (R)-2,2-difluoro-6^4,4-dimethyl-6^7-morpholino-7-oxa-5-aza-6(1,5)-phthalazina-1(4,1)-piperidina-3(1,3)-benzenacyclotridecaphane], for which the IC50 was < 100 nM.

As to `C[C@H]1Nc2ncnc3c2cc(C2CCS(=O)(=O)CC2)c(=O)n3CCCOCCCN2CCC(CC2)CC(F)(F)c2cccc1c2` [Compound 194, (3R)-1^6-(1,1-dioxidotetrahydro-2H-thiopyran-4-yl)-5,5-difluoro-3-methyl-1^7,1^8-dihydro-11-oxa-2-aza-1(4,8)-pyrido[2,3-d]pyrimidina-7(4,1)-piperidina-4(1,3)-benzenacyclotetradecaphan-1^7-one], the IC50 is < 100 nM.

On to `CC(C)N1CCN(c2cc3c4ncnc(c4c2)N[C@H](C)c2cccc(c2)C(F)(F)C2CCN(CCCCCCO3)CC2)CC1` [Compound 195, (R)-2,2-difluoro-6^6-(4-isopropylpiperazin-1-yl)-4-methyl-7-oxa-5-aza-6(4,8)-quinazolina-1(4,1)-piperidina-3(1,3)-benzenacyclotridecaphane], for which the IC50 is < 100 nM.

As for `COc1cc2nc(C)nc3c2cc1OCCOCCOCCOCCNC(=O)CCOCCNCc1ccccc1-c1cccc(c1)[C@@H](C)N3` [Compound 14, (R)-5^7-methoxy-5^2,3-dimethyl-6,9,12,15,22-pentaoxa-4,18,25-triaza-5(4,6)-quinazolina-1(1,2),2(1,3)-dibenzenacyclohexacosaphan-19-one], the IC50 was 100 to 5000 nM.

As to `C[C@H]1Nc2nc(=O)n(c3c2cc(C2(C#N)CC2)c(=O)n3C)CCCC/C=C\COCC(F)(F)c2cccc1c2F` [Compound 82, 1-((1^3E,3R,9Z)-4^2,5,5-trifluoro-1^8,3-dimethyl-1^2,1^7-dioxo-1^1,1^2,1^7,1^8-tetrahydro-7-oxa-2-aza-1(4,1)-pyrido[2,3-d]pyrimidina-4(1,3)-benzenacyclotetradecaphan-9-en-1^6-yl)cyclopropane-1-carbonitrile], the IC50 was in the range of 100 to 5000 nM.

Turning to `COc1cc2nc(C)nc3c2cc1OCCCCOCCOCCOCCNCc1ccccc1C1=CC=C(S1)C(C)N3` (stereo not drawn) [Compound 150, 5^7-methoxy-5^2,3-dimethyl-6,11,14,17-tetraoxa-4,20-diaza-5(4,6)-quinazolina-2(2,5)-thiophena-1(1,2)-benzenacyclohenicosaphane], the IC50 was in the range of 100 to 5000 nM.

For `Cc1nc2c3cc(C4(C#N)CC4)c(=O)n(c3n1)CCCCCC/C=C\CC(C)(O)C(F)(F)c1cccc(c1)[C@@H](C)N2` (stereo partly drawn) [Compound 18, 1-((3R,Z)-5,5-difluoro-6-hydroxy-1^2,3,6-trimethyl-1^7-oxo-1^7,1^8-dihydro-2-aza-1(4,8)-pyrido[2,3-d]pyrimidina-4(1,3)-benzenacyclopentadecaphan-8-en-1^6-yl)cyclopropane-1-carbonitrile], the IC50 is 100 to 5000 nM.

As for `C[C@H]1Nc2ncnc3c(cc(N4CCS(=O)(=O)CC4)cc23)OCCCCCCN2CCC(CC2)C(F)(F)c2cccc1c2` [Compound 193, (R)-4-(2,2-difluoro-4-methyl-7-oxa-5-aza-6(4,8)-quinazolina-1(4,1)-piperidina-3(1,3)-benzenacyclotridecaphane-6^6-yl)thiomorpholine 1,1-dioxide], the IC50 is < 100 nM.

As for `Cc1nc2c3cc(C4(C#N)CC4)c(=O)n(c3n1)CCCCCCCC(C)(O)C(F)(F)c1cccc(c1)[C@@H](C)N2` (stereo partly drawn) [Compound 148, 1-((3R)-5,5-difluoro-6-hydroxy-1^2,3,6-trimethyl-1^7-oxo-1^7,1^8-dihydro-2-aza-1(4,8)-pyrido[2,3-d]pyrimidina-4(1,3)-benzenacyclotridecaphane-1^6-yl)cyclopropane-1-carbonitrile], the IC50 lay in the range of 100 to 5000 nM.

As for `Cc1nc2c3cc(C4CCS(=O)(=O)CC4)c(=O)n(c3n1)CCCCCCCN1CCC(CC1)C(F)(F)c1cccc(c1)[C@@H](C)N2` [Compound 7, (4R)-6^6-(1,1-dioxidotetrahydro-2H-thiopyran-4-yl)-2,2-difluoro-6^2,4-dimethyl-6^7,6^8-dihydro-5-aza-6(4,8)-pyrido[2,3-d]pyrimidina-1(4,1)-piperidina-3(1,3)-benzenacyclotridecaphan-6^7-one], the IC50 lay in the range of 100 to 5000 nM.

Consider `C[C@H]1Nc2ncnc3c2cc(N2CCS(=O)(=O)CC2)c(=O)n3CCCOCCCCN2CCC(CC2)C(F)(F)c2cccc1c2F` [Compound 69, (4R)-6^6-(1,1-dioxidothiomorpholino)-3^2,2,2-trifluoro-4-methyl-6^7,6^8-dihydro-10-oxa-5-aza-6(4,8)-pyrido[2,3-d]pyrimidina-1(4,1)-piperidina-3(1,3)-benzenacyclotetradecaphan-6^7-one], for which the IC50 was < 100 nM.

In the case of `Cc1nc2c3cc(C4(C#N)CC4)c(=O)n(c3n1)CCCCCCCCCC(C)(O)C(F)(F)c1cccc(c1)[C@@H](C)N2` (stereo partly drawn) [Compound 115, 1-((3R)-5,5-difluoro-6-hydroxy-1^2,3,6-trimethyl-1^7-oxo-1^7,1^8-dihydro-2-aza-1(4,8)-pyrido[2,3-d]pyrimidina-4(1,3)-benzenacyclopentadecaphane-1^6-yl)cyclopropane-1-carbonitrile], the IC50 fell in the range of 100 to 5000 nM.
